Measurements taken from the NIST ThermoML archive (doi:10.1016/j.fluid.2012.07.027).
± gives the expanded uncertainty stated by the source.

Conditions: Liquid, Ebulliometric method (Recirculating still)

CCCCCOCCOCCOCCCCC [1-(2-(2-(pentyloxy)ethoxy)ethoxy)pentane]
vapor or sublimation pressure (427.5 K): 2 ± 0.03 kPa | vapor or sublimation pressure (437.5 K): 3 ± 0.03 kPa | vapor or sublimation pressure (444.6 K): 4 ± 0.04 kPa | vapor or sublimation pressure (450.3 K): 5 ± 0.05 kPa | vapor or sublimation pressure (455.1 K): 6 ± 0.05 kPa | vapor or sublimation pressure (459.3 K): 7 ± 0.06 kPa | vapor or sublimation pressure (461.2 K): 7.5 ± 0.06 kPa | vapor or sublimation pressure (463 K): 8 ± 0.07 kPa | vapor or sublimation pressure (466.2 K): 9 ± 0.07 kPa | vapor or sublimation pressure (469.1 K): 10 ± 0.08 kPa | vapor or sublimation pressure (471.7 K): 11 ± 0.09 kPa | vapor or sublimation pressure (474.1 K): 12 ± 0.09 kPa | vapor or sublimation pressure (476.3 K): 13 ± 0.1 kPa | vapor or sublimation pressure (478.6 K): 14 ± 0.1 kPa | vapor or sublimation pressure (480.7 K): 15 ± 0.12 kPa | vapor or sublimation pressure (488.8 K): 20 ± 0.14 kPa | vapor or sublimation pressure (495.7 K): 25 ± 0.15 kPa
